The target in assay [1] is T1, WRN (Homo sapiens, UniProt Q14191).
T1 construct: A His-tagged construct of WRN (AA S2-S1235) was produced and used for the ATPase assay; His; made in house; host or cells: Sf9 insect cells (baculovirus)
Kind of assay: WRN ATPase activity assay (ADP-Glo). In kind it is biochemical. As to conditions: 1-hr pre-incubation with enzyme; 100 μM ATP, 25 nM forked dsDNA, 1 nM WRN; geometric mean of at least 2 replicates. On the procedure: Compounds of the Examples were tested for WRN ATPase activity. WRN ATPase activity catalyzes ATP hydrolysis to produce ADP and phosphate. DNA encoding the target protein, 6×HIS-TEV-WRN-517-945, was produced, cloned and transfected as detailed in Example D. The amount of ADP produced was measured using ADP-Glo™ Kinase Assay kit from Promega Corporation in a Greiner white regular volume 384 wells assay plate (Greiner #781075). Data was normalized to a standard curve generated using various ADP concentrations and the corresponding luminescent signal intensities at each concentration. The assay conditions were optimized for enzyme concentration (WRN), substrate concentrations (ATP & dsDNA), and the linearity of the ATPase reaction, in the following assay buffer: 50 mM Tris-HCl, pH-7.5, 2 mM MgCl2, 50 mM NaCl, 1 mM EGTA, 0.01% P-20, 0.05% BSA, and 2 mM DTT prepared with nuclease free water.
A serial dilution (1:3 scheme) of the compounds were prepared in neat DMSO, with 100 nL of the compounds dispensed in the 384 wells assay plate. An 1-hr pre-incubation of the compounds with enzyme was included. A His-tagged construct of WRN (AA S2-S1235) was produced and used for the ATPase assay. Maximum inhibition control wells were set up with the addition of only assay buffer, and no inhibition control wells were set up with neat DMSO without test compounds. The reaction was initiated by addition of 5 μL substrate mix (200 μM ultrapure ATP, and 50 nM dsDNA prepared in assay buffer) and incubated at 25° C. for 35 min. A forked dsDNA oligomer substrate was prepared by annealing equal amounts of oligo GPat-1 ([BHQ2][…]) and oligo GPat-2 ([…][TAM]) and was used as dsDNA substrate for WRN ATPase assay. A typical ATPase reaction consists of 25 nM forked dsDNA, 100 μM ATP, and 1 nM WRN prepared in assay buffer. The WRN ATPase reaction was stopped by the addition of 5 μL of ADP-Glo Reagent from ADP-Glo™ Kinase Assay kit and incubated for 40 min to deplete the unreacted ATP. Afterwards, 5 μL of Kinase Detection Reagent from the ADP-Glo™ Kinase Assay kit was added and incubated for 1 hr for the development of luminescence signal.
Luminesce signals were measured on BMG PHERAstar FSX using luminescence protocol. Data analysis was carried out using Genedata software following % of control normalization. Fitting parameters include dose response IC50, Hill slope (n), maximum inhibition (S∞), and minimum inhibition (S0). The reported IC50 values for compounds in this invention are the geometric means of at least 2 independent replicates.
A general note: ADP-Glo first removes unused ATP, then detects ADP through luciferase.

The target of assay [2] is T1, WRN. The assay can be described thus: WRN Helicase activity assay (fluorescence DNA unwinding). In kind it is biochemical. As to conditions: 1-hr pre-incubation with enzyme; 100 μM ATP, 25 nM forked dsDNA, 1 nM WRN; geometric mean of at least 2 replicates. The procedure:
Compounds of the examples were tested for WRN helicase activity. DNA encoding the target protein, 6×HIS-TEV-WRN-517-945, was produced, cloned and transfected as detailed in Example D. To determine the inhibitory properties of the compounds, a 384 wells plate-based Helicase assay was set up to measure the extent of DNA unwinding (Helicase) activity of WRN. The WRN Helicase assay was designed to measure increase in fluorescence signal using a fluorescence based, donor-quencher paired forked dsDNA oligomer substrate (custom synthesis from Sigma-Aldrich) prepared by annealing equal amounts of oligo GPat-1 ([BHQ2][…]) and oligo GPat-2 ([…][TAM]). Continuous measurement of fluorescent signal was used to optimize the buffer conditions, concentration of enzyme (WRN), concentration of substrates (ATP & dsDNA), and the linearity of the Helicase reaction. All solutions were prepared in the following assay buffer: 50 mM Tris-HCl, pH-7.5, 2 mM MgCl2, 50 mM NaCl, 1 mM EGTA, 0.01% P-20, 0.05% BSA, and 2 mM DTT prepared with nuclease free water.
A serial dilution (1:3 scheme) of the compounds was prepared in neat DMSO and 100 nL of the compounds was dispensed in the Greiner black low volume (Greiner #784076) 384 wells assay plate. An 1-hr pre-incubation of the compounds with enzyme was included. A His-tagged construct of WRN (AA S2-S1235) was produced and used for the ATPase assay. Maximum inhibition control wells were set up with the addition of only assay buffer, and no inhibition control wells were set up with neat DMSO without test compounds. The reaction was initiated by addition of 5 μL substrate mix (200 μM ultrapure ATP, and 50 nM dsDNA prepared in assay buffer) and incubated at 25° C. for 35 min. A typical Helicase reaction consists of 25 nM forked dsDNA, 100 μM ATP, and 1 nM WRN prepared in assay buffer. The WRN Helicase reaction was quenched by the addition of 5 μL ‘STOP’ solution containing 100 mM EDTA (final EDTA concentration 33.33 mM) prepared in assay buffer. The plates were read on BMG PHERAstar FSX using 540/590 module to measure an increase of fluorescence. Data analysis was carried out using the Genedata software following % of control normalization. Fitting parameters include dose response IC50, Hill slope (n), maximum inhibition (S∞), and minimum inhibition (S0). The reported IC50 values for compounds in this invention are the geometric means of at least 2 independent replicates.

A word on the IC50: it is the concentration that gives 50% inhibition. Low readings indicate higher potency, high ones lower potency.

T1 sequence (Q14191 2-1235): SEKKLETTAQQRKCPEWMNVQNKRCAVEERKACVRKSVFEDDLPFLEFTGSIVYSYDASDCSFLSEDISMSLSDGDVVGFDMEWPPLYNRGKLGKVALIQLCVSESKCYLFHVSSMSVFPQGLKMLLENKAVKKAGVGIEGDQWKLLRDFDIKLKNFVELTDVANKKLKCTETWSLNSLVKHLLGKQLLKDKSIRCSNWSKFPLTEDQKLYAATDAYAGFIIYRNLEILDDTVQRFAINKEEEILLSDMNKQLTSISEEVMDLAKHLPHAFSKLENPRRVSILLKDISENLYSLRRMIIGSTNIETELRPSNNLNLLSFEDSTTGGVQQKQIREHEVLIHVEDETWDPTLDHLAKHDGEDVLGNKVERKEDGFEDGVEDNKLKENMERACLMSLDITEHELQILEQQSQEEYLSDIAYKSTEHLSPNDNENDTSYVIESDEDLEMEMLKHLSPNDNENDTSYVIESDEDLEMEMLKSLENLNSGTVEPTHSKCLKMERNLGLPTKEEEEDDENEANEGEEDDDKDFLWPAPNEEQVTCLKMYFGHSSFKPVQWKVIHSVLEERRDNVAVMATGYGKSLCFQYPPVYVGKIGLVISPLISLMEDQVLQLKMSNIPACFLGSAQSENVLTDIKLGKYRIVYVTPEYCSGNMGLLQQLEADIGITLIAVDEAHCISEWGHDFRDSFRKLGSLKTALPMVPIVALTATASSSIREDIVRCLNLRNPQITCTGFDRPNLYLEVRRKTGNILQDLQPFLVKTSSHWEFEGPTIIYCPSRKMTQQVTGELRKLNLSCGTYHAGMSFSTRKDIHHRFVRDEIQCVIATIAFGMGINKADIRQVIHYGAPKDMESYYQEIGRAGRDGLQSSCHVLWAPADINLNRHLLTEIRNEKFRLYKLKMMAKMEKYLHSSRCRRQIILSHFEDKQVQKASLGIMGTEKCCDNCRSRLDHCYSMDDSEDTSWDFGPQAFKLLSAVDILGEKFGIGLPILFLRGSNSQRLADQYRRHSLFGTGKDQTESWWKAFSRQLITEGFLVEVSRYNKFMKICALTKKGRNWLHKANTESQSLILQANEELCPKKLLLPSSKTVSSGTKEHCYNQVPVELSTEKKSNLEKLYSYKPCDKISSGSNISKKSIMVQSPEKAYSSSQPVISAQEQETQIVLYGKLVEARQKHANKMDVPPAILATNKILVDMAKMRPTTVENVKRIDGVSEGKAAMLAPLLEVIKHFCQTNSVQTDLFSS

Consider `C=CC(=O)Nc1cc(C(=O)NCCOC)ccc1-c1c(CC)nc2n(CC(=O)Nc3ccc(C(F)(F)F)cc3)c(C)c(C)n2c1=O` [Example 31, 3-Acrylamido-4-(7-ethyl-2,3-dimethyl-5-oxo-1-(2-oxo-2-((4-(trifluoromethyl)phenyl)amino)ethyl)-1,5-dihydroimidazo[1,2-a]pyrimidin-6-yl)-N-(2-methoxyethyl)benzamide], for which the half-maximal inhibitory concentration (IC50) in assay [1] and in assay [2] was less than 100 nM in each case.

In the case of `C=CC(=O)Nc1cc(C(=O)NC2CCOCC2)ccc1-c1c(CC)nc2n(CC(=O)Nc3ccc(C(F)(F)F)cc3)c(C)c(C)n2c1=O` [Example 32, 3-Acrylamido-4-(7-ethyl-2,3-dimethyl-5-oxo-1-(2-oxo-2-((4-(trifluoromethyl)phenyl)amino)ethyl)-1,5-dihydroimidazo[1,2-a]pyrimidin-6-yl)-N-(tetrahydro-2H-pyran-4-yl)benzamide], the IC50 in assay [1] and in assay [2] was less than 100 nM in each case.

Consider `C=CC(=O)Nc1cc(C(=O)N[C@H]2CCCOC2)ccc1-c1c(CC)nc2n(CC(=O)Nc3ccc(C(F)(F)F)cc3)c(C)c(C)n2c1=O` [Example 33, (S)-3-Acrylamido-4-(7-ethyl-2,3-dimethyl-5-oxo-1-(2-oxo-2-((4-(trifluoromethyl)phenyl)amino)ethyl)-1,5-dihydroimidazo[1,2-a]pyrimidin-6-yl)-N-(tetrahydro-2H-pyran-3-yl)benzamide], for which the IC50 in assay [1] and in assay [2] was less than 100 nM in each case.

As for `C=CC(=O)Nc1cc(C(=O)NC2(CO)CC2)ccc1-c1c(CC)nc2n(CC(=O)Nc3ccc(C(F)(F)F)cc3)c(C)c(C)n2c1=O` [Example 34, 3-Acrylamido-4-(7-ethyl-2,3-dimethyl-5-oxo-1-(2-oxo-2-((4-(trifluoromethyl)phenyl)amino)ethyl)-1,5-dihydroimidazo[1,2-a]pyrimidin-6-yl)-N-(1-(hydroxymethyl)cyclopropyl)benzamide], the IC50 in assay [1] and in assay [2] was less than 100 nM each time.

As to `C=CC(=O)Nc1cc(C(=O)N2CCOCC2)ccc1-c1c(CC)nc2n(CC(=O)Nc3ccc(C(F)(F)F)cc3)c(C)c(C)n2c1=O` [Example 35, N-(2-(7-Ethyl-2,3-dimethyl-5-oxo-1-(2-oxo-2-((4-(trifluoromethyl)phenyl)amino)ethyl)-1,5-dihydroimidazo[1,2-a]pyrimidin-6-yl)-5-(morpholine-4-carbonyl)phenyl)acrylamide], the IC50 in assay [1] and in assay [2] was less than 100 nM in each case.

In the case of `C=CC(=O)Nc1ccccc1-c1cn(CC(=O)Nc2ccc(C(F)(F)F)cc2)c2nc(CC)c(N3CCN(C(=O)c4ncccc4O)CC3)c(=O)n12` [Example 36, N-(2-(7-Ethyl-6-(4-(3-hydroxypicolinoyl)piperazin-1-yl)-5-oxo-1-(2-oxo-2-((4-(trifluoromethyl)phenyl)amino)ethyl)-1,5-dihydroimidazo[1,2-a]pyrimidin-3-yl)phenyl)acrylamide], the IC50 in assay [1] and in assay [2] was less than 100 nM in each case.

For `C=CC(=O)Nc1ccccc1-c1c(C)n(CC(=O)Nc2ccc(F)cc2)c2nc(CC)c(-c3ccccc3)c(=O)n12` [Example 37, N-(2-(7-Ethyl-1-(2-((4-fluorophenyl)amino)-2-oxoethyl)-2-methyl-5-oxo-6-phenyl-1,5-dihydroimidazo[1,2-a]pyrimidin-3-yl)phenyl)acrylamide], the half-inhibitory concentration (IC50) in assay [1] and in assay [2] was less than 100 nM throughout.

As for `C=CS(=O)(=O)Nc1ccccc1-c1c(C)n(CC(=O)Nc2ccc(F)cc2)c2nc(CC)c(-c3ccccc3)c(=O)n12` [Example 38, 2-(7-Ethyl-2-methyl-5-oxo-6-phenyl-3-(2-(vinylsulfonamido)phenyl)imidazo[1,2-a]pyrimidin-1(5H)-yl)-N-(4-fluorophenyl)acetamide], the IC50 in assay [1] and in assay [2] was less than 100 nM each time.

Values taken from patent publication US20250270217A1, “IMIDAZ0[1,2-A]PYRIMIDINE-5(1 H)-ONES HAVING A COVALENT WARHEAD AT THE 3-POSITION AS WRN INHIBITORS” (Incyte Corporation, priority 2023, published 2025).
